# Experimental data: patent US12622909B2, “Allosteric EGFR inhibitors and methods of use thereof” (Dana-Farber Cancer Institute, Inc., priority 2019, dated 2026)
# Like-named read-outs stand apart in the source and are kept apart here.
# Experiments:
# EGFR L858R/T790M = EGFR L858R/T790M (Homo sapiens, UniProt P00533, L858R/T790M); assay: HTRF-based EGFR biochemical assay (L858R/T790M); conditions: 100 μM ATP, enzyme 0.02 nM
# In short: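 Mutant EGFR preincubated 30 min with compound at room temperature, then reacted 20 min with 1 μM biotinylated tyrosine kinase peptide and 100 μM ATP in 50 mM HEPES pH 7.0, 5 mM MgCl2, 1 mM MnCl2, 0.01% BSA, 2 mM TCEP, 0.1 mM NaVO4. Phosphorylation read by HTRF.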
# EGFR L858R = EGFR L858R (Homo sapiens, UniProt P00533, L858R); assay: HTRF-based EGFR biochemical assay (L858R); conditions: 100 μM ATP, enzyme 0.1 nM
# In short: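 Reaction started with 100 μM ATP (final) for 20 min, then quenched with EDTA. Phosphorylation detected by HTRF (Eu-cryptate anti-phosphotyrosine/Streptavidin-XL665, 665/620 nm).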
# [1] = target: EGFR L858R/T790M mutant Ba/F3 cells (Homo sapiens, UniProt P00533, T790M/L858R, cells depend on it); assay: Ba/F3 cell proliferation (Cell Titer Glo); type: cell-based, murine; conditions: 72 hours
# In short: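 Ba/F3 cells retrovirally transduced with the EGFR construct and puromycin-selected (2 μg/ml), grown in RPMI 1640 with 10% FBS. Viability read by Cell Titer Glo luminescence (ATP content), triplicate points, experiments repeated at least three times. Curves fitted by non-linear sigmoidal dose-response regression.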
# [2] = in combination with 1 μg/ml cetuximab, read-out: Cell IC50 BaF3 L858R/T790M compound + cetuximab
# [3] = single agent, read-out: Cell IC50 EGFR BaF3 L858R/T790M
# EGFR L858R/T790M mutant Ba/F3 cells, sequence (P00533 whole entry T790M/L858R): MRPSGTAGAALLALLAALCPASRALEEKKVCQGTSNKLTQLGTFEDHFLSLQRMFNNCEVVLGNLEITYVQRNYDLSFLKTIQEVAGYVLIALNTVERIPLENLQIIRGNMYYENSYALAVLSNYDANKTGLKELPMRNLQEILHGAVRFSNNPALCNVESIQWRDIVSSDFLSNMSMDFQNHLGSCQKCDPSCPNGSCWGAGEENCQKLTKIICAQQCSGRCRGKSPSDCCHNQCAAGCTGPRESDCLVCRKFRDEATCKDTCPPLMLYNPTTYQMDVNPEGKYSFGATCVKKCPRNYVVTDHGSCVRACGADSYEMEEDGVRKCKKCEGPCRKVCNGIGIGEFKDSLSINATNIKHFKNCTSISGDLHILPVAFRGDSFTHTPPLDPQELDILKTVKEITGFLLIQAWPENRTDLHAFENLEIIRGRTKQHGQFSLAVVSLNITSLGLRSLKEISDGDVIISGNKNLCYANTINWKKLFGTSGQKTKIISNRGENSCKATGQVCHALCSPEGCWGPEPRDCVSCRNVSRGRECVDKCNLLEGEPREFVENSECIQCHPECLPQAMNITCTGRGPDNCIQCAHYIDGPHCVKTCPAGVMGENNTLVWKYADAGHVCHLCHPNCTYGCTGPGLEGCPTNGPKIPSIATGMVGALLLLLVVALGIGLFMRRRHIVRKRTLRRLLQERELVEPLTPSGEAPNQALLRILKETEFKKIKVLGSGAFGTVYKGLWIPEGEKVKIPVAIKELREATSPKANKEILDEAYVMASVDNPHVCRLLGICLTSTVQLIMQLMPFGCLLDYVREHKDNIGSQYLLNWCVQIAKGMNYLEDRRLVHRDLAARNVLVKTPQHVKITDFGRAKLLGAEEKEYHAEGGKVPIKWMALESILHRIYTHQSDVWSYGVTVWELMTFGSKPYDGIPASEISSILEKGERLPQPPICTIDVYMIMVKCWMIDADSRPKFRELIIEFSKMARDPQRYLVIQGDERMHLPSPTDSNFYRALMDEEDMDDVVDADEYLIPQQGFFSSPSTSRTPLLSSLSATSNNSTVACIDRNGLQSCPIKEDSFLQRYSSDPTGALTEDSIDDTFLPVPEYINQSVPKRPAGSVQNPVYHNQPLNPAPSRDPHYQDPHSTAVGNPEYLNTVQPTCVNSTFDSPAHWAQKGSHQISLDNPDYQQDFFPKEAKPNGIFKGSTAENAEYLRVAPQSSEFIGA
# EGFR L858R/T790M, sequence (P00533 25-1210 T790M/L858R): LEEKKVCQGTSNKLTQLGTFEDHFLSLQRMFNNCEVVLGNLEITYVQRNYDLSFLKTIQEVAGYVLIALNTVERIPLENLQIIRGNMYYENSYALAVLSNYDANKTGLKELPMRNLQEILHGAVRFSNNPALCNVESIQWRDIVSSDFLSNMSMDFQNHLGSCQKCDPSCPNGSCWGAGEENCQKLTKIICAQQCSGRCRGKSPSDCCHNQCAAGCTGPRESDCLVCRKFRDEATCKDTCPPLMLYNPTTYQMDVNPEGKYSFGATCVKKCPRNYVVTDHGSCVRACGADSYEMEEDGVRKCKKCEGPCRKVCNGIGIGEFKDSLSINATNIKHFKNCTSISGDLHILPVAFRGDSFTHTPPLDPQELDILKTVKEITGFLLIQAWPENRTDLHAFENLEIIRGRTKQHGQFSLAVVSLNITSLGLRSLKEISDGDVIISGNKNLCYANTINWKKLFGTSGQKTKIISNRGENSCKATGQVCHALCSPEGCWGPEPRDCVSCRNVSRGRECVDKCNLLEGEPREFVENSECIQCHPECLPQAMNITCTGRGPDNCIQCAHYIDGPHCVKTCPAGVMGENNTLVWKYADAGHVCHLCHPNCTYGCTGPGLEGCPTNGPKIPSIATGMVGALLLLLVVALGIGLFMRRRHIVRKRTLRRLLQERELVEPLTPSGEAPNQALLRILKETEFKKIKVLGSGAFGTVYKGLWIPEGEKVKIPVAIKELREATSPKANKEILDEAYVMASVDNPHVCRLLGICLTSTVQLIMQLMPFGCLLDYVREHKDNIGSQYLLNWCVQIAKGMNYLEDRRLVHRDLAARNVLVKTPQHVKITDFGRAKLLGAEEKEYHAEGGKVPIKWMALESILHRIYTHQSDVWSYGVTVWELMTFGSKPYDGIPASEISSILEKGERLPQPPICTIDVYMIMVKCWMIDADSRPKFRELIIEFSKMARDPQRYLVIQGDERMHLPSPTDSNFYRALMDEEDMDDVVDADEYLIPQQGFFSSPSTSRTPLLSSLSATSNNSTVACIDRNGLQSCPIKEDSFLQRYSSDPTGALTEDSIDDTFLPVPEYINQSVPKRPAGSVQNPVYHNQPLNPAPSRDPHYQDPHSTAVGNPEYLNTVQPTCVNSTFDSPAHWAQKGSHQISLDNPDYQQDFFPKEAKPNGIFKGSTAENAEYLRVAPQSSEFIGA
# EGFR L858R, sequence (P00533 25-1210 L858R): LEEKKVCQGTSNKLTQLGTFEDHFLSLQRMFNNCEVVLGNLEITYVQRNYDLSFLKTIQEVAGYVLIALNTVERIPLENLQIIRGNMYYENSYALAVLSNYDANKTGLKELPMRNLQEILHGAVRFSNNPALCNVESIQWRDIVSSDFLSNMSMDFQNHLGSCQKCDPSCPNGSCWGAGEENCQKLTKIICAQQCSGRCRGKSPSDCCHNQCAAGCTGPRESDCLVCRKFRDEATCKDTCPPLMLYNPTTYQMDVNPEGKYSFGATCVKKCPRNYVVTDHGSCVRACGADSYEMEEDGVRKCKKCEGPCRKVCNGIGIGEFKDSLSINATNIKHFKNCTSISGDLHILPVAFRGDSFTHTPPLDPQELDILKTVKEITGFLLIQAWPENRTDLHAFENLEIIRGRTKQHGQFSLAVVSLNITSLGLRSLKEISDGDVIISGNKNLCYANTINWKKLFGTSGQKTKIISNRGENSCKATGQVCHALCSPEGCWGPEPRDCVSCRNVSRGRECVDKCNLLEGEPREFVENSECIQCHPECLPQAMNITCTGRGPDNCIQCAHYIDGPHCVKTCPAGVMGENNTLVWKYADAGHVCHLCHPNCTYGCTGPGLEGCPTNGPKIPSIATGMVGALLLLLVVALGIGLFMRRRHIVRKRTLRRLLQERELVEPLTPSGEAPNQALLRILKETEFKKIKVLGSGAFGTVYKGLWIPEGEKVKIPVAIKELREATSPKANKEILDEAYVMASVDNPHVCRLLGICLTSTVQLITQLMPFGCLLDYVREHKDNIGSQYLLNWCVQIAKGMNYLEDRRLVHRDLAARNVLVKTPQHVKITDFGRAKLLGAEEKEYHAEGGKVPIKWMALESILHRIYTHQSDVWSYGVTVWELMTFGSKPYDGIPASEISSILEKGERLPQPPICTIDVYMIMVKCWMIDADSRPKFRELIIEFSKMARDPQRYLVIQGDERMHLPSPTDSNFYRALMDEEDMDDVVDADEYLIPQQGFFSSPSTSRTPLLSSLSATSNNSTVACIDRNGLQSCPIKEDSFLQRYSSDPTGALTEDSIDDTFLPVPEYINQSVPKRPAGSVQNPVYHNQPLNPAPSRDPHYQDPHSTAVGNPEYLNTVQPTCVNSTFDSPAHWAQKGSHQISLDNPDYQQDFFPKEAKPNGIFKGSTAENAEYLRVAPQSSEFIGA
IC50 (EGFR L858R/T790M) [nM],IC50 (EGFR L858R) [nM],"GI50 [1, 2] [nM]","GI50 [1, 3] [nM]",SMILES
11,101,350,> 10000,"O=C(Nc1nccs1)C(c1ccccc1)n1cc(F)c2ccc(Br)cc2c1=O (centres unmarked) [Compound 035, 2-(7-Bromo-4-fluoro-1-oxo-isoquinolin-2(1H)-yl)-2-phenyl-N-(thiazol-2-yl)acetamide]"
10,> 1000,> 10000,> 10000,"O=C(Nc1nccs1)C(c1ccccc1)n1ncc2cc(Br)ccc2c1=O (centres unmarked) [Compound 009, 2-(6-Bromo-1-oxophthalazin-2(1H)-yl)-2-phenyl-N-(thiazol-2-yl)-acetamide]"
8,48,84,1370,"CN1CCN(c2ccc(-c3cnc4ncn(C(C(=O)Nc5nccs5)c5ccccc5)c(=O)c4c3)cc2)CC1 (centres unmarked) [Compound 059, 2-(6-(4-(4-Methylpiperazin-1-yl)-phenyl)-4-oxopyrido[2,3-d]-pyrimidin-3(4H)-yl)-2-phenyl-N-(thiazol-2-yl)acetamide]"
0.4,2,33,3160,"CN1CCC(c2ccc(-c3ccc4ncn(C(C(=O)Nc5nccs5)c5c(O)cccc5F)c(=O)c4c3)cc2)CC1 (centres unmarked) [Compound 086, 2-(2-Fluoro-6-hydroxyphenyl)-2-(6-(4-(1-methylpiperidin-4-yl)phenyl)-4-oxoquinazolin-3(4H)-yl)-N-(thiazol-2-yl)acetamide]"
0.2,2,10,1350,"CN1CCN(c2ccc(-c3ccc4ncn(C(C(=O)Nc5nccs5)c5cccc(F)c5)c(=O)c4c3)cc2)CC1 (centres unmarked) [Compound 031, 2-(3-Fluorophenyl)-2-(6-(4-(4-methyl-piperazin-1-yl)phenyl)-4-oxo-quinazolin-3(4H)-yl)-N-(thiazol-2-yl)-acetamide]"
54,1840,> 10000,> 10000,"O=C(Nc1nccs1)C(c1cccc(F)c1)n1cnc2cc(Br)ccc2c1=O (centres unmarked) [Compound 010, 2-(7-Bromo-4-oxoquinazolin-3(4H)-yl)-2-(3-fluorophenyl)-N-(thiazol-2-yl)acetamide]"
0.5,7,28,2810,"CN1CCC(c2ccc(-c3ccc4ncn(C(C(=O)Nc5nccs5)c5cccc(F)c5)c(=O)c4n3)cc2)CC1 (centres unmarked) [Compound 069, 2-(3-Fluorophenyl)-2-(6-(4-(1-methylpiperidin-4-yl)phenyl)-4-oxo-pyrido[3,2-d]pyrimidin-3(4H)-yl)-N-(thiazol-2-yl)acetamide]"
48,> 1000,1500,> 10000,"O=C(Nc1nccs1)C(c1cccc(F)c1)n1ccc2ccc(Br)cc2c1=O (centres unmarked) [Compound 007, 2-(7-Bromo-1-oxoisoquinolin-2(1H)-yl)-2-(3-fluorophenyl)-N-(thiazol-2-yl)acetamide]"
1,7,4,800,"CN1CCC(c2ccc(-c3ccc4ncn(C(C(=O)Nc5nccs5)c5cccc(F)c5)c(=O)c4c3)cc2)CC1 (centres unmarked) [Compound 030, 2-(3-Fluorophenyl)-2-(6-(4-(1-methyl-piperidin-4-yl)phenyl)-4-oxo-quinazolin-3(4H)-yl)-N-(thiazol-2-yl)-acetamide]"
0.1,0.4,48,860,"CN1CCC(c2ccc(-c3ccc4ncn(C(C(=O)Nc5nccs5)c5cc(F)ccc5O)c(=O)c4n3)cc2)CC1 (centres unmarked) [Compound 084, 2-(5-Fluoro-2-hydroxyphenyl)-2-(6-(4-(1-methylpiperidin-4-yl)phenyl)-4-oxopyrido[3,2-d]pyrimidin-3(4H)-yl)-N-(thiazol-2-yl)acetamide]"
6,11,200,2150,"CN1CCC(c2ccc(-c3ccc4c(=O)n(C(C(=O)Nc5nccs5)c5ccccc5)cnc4c3)cc2)CC1 (centres unmarked) [Compound 012, 2-(7-(4-(1-Methylpiperidin-4-yl)phenyl)-4-oxoquinazolin-3(4H)-yl)-2-phenyl-N-(thiazol-2-yl)acetamide]"
79,264,1500,3940,"Cc1nc2cc(-c3ccc(N4CCN(C)CC4)cc3)ccc2c(=O)n1C(C(=O)Nc1nccs1)c1ccccc1 (centres unmarked) [Compound 055, 2-(2-Methyl-7-(4-(4-methylpiperazin-1-yl)phenyl)-4-oxoquinazolin-3(4H)-yl)-2-phenyl-N-(thiazol-2-yl)-acetamide]"

SMILES,IC50 (EGFR L858R/T790M) [nM],IC50 (EGFR L858R) [nM],"GI50 [1, 2] [nM]","GI50 [1, 3] [nM]"
"CN1CCC(c2ccc(-c3ccc4ncn(C(C(=O)Nc5nccs5)c5ccccc5)c(=O)c4c3)cc2)CC1 (centres unmarked) [Compound 014, 2-(6-(4-(1-Methylpiperidin-4-yl)-phenyl)-4-oxoquinazolin-3(4H)-yl)-2-phenyl-N-(thiazol-2-yl)acetamide]",0.2,3,5,510
"CN1CCN(c2ccc(-c3ccc4cnn(C(C(=O)Nc5nccs5)c5ccccc5)c(=O)c4c3)cc2)CC1 (centres unmarked) [Compound 043, 2-(7-(4-(4-Methylpiperazin-1-yl)-phenyl)-1-oxophthalazin-2(1H)-yl)-2-phenyl-N-(thiazol-2-yl)acetamide]",10,90,380,2160
